The subject of the experiment is lipodystrophy. The experiment in a line: Observation of lipodystrophy signs and symptoms in patients using pentoxifylline for claudication. Type of experiment: in vivo, human. The text has this: It is believed that 80-85% of patients respond favorably with amelioration some or all of their symptoms.
[1] abbreviates: diabetic HIV positive patients using pentoxifylline for claudication.

On to `CC(=O)CCCCn1c(=O)c2c(ncn2C)n(C)c1=O` [pentoxifylline], for which, under setting [1], the central fat deposition result was “resolved or remitted”, the facial lines result is on record as “decreased and/or disappeared” and the leg vein prominence entry is on record as “diminished or disappeared”. Moreover, the “signs and symptoms of lipodystrophy” value (diabetic HIV positive patients with peripheral vascular disease and intermittent claudication, using pentoxifylline for claudication) was “disappeared or were ameliorated”. Also, where the note is “patients using pentoxifylline, stated as 'It is believed'”, the “patients responding favorably with amelioration of some or all of their symptoms” value is listed as 80-85%.

The values are drawn from patent publication US20040209900A1, “Treatment of lipodystrophy (lipid redistribution syndrome)” (priority 2003, published 2004).
